Experimental findings from US12590099B2, “Inhibitors of histone deacetylase useful for the treatment or prevention of HIV infection” (Merck Sharp & Dohme LLC, priority 2018, dated 2026) are described below.

Like-named read-outs stand apart in the source and are kept apart here. Where only a bound is given, the exact number is not on record here.

One assay relates to KARN cells (Jurkat 2C4). Description: cells. Format: cell-based. Particulars: luciferase induction, 100% = 2 μM SAHA. The method, boiled down:
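Jurkat 2C4 (KARN) cells dosed with test compounds up to 40 μM final, 0.4% DMSO, overnight at 5% CO2; luciferase read by Steady-Glo luminescence after 10 min at room temperature. DMSO set as 0% and 2 μM SAHA as 100% induction; 4-parameter fit of percent activation.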

For another assay, the target named is T1, Recombinant human HDAC8 (Homo sapiens, UniProt Q9BY41).
T1 construct: purchased Enzo Life Sciences BML-SE145-0100
T1 sequence (Q9BY41 1-377): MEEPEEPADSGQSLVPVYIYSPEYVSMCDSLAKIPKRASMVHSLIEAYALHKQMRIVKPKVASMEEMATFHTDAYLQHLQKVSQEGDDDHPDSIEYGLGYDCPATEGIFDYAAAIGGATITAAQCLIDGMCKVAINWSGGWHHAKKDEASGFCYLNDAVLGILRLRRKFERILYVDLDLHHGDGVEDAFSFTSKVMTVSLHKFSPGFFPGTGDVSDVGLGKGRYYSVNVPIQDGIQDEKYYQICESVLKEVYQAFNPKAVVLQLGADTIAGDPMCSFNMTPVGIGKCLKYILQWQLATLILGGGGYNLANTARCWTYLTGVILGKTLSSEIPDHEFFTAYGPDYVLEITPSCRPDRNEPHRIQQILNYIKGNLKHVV
Description: Human HDAC enzyme inhibitor Fluor-de-Lys assay, HDAC8. It counts as biochemical. Particulars: recombinant human HDAC8, Fluor-de-Lys assay.

Setting [1] is: Homo sapiens, Jurkat, read-out: Karn EC50 (nM) 0.1% NHS, 0.1% normal human serum.
The mark [2] stands for this setting: Homo sapiens, Jurkat, read-out: Karn EC50 (nM) 5% NHS, 5% normal human serum.
[3] abbreviates: read-out: Karn EC50 (nM) 0.1% NHS, 0.1% normal human serum.
The mark [4] stands for this setting: read-out: Karn EC50 (nM) 5% NHS, 5% normal human serum.

The term EC50 denotes the concentration that produces a half-maximal response. Broadly, the IC50 is the midpoint of a concentration-inhibition curve. On to `CCC(=O)CCCCC[C@H](NC(=O)C1CC12CCOCC2)c1ncc(-c2cc3ccc(C)nc3cc2OC)[nH]1` (single isomer, unassigned) [Compound 407], for which the EC50 was 336 nM in the assay with KARN cells (Jurkat 2C4) (setting [1]) and 977 nM in the assay on KARN cells (Jurkat 2C4) (setting [2]). For the same molecule, the IC50 on Recombinant human HDAC8 is above 0.9 µM.
In the same order, the values of `CCC(=O)CCCCC[C@H](NC(=O)[C@H]1CC[C@@]2(CC1)OC(=O)c1cccnc12)c1nnc(-c2cc3ccccc3nc2OC)o1` [Compound 366] are 1500 nM, 5360 nM and above 45 µM.
With `CCC(=O)CCCCC[C@H](NC(=O)[C@H]1CC12CCN(CC1CC1)CC2)c1ncc(-c2ccc3nc(C)ccc3c2)[nH]1` [Compound 393], the EC50 stood at 21 nM in the assay on KARN cells (Jurkat 2C4) (setting [1]) and 22 nM with KARN cells (Jurkat 2C4) (setting [2]). For the same molecule, on Recombinant human HDAC8, the IC50 is above 0.9 µM.
For `CCC(=O)CCCCC[C@H](NC(=O)[C@H]1CC[C@@]2(CC1)OC(=O)c1cnccc12)c1ncc(-c2ccccc2)[nH]1` [Compound 373] the same measures were 1650 nM, 5340 nM and 6.67 µM.
In the case of `CCC(=O)CCCCC[C@H](NCC1CN(C)C1)c1ncc(-c2cc3ccc(C)nc3cc2OC)o1` [Compound 401, (9S)-9-[5-(7-methoxy-2-methylquinolin-6-yl)-1,3-oxazol-2-yl]-9-{[(1-methylazetidin-3-yl)methyl]amino}nonan-3-one], the EC50 in the assay on KARN cells (Jurkat 2C4) (setting [1]) was determined as 1840 nM; with KARN cells (Jurkat 2C4) (setting [2]) it was 2210 nM. The IC50 at Recombinant human HDAC8 was above 0.9 µM.
For `CCC(=O)CCCCC[C@H](NC(=O)[C@H]1CC[C@@]2(CC1)OC(=O)c1ncccc12)c1ncc(-c2ccccc2)[nH]1` [Compound 374], the concentration giving a half-maximal response (EC50) is 2580 nM with KARN cells (Jurkat 2C4) (setting [1]) and 5400 nM in the assay on KARN cells (Jurkat 2C4) (setting [2]). Moreover, the IC50 on Recombinant human HDAC8 came to 8.18 µM.
With `CCC(=O)CCCCCC(CC)(NC(=O)[C@H]1CC12CCN(CC1CC1)CC2)c1nc(-c2cc3ccc(C)nc3cc2OC)c[nH]1` (stereo partly drawn) [Compound 420, (1S)-6-(cyclopropylmethyl)-N-{3-[4-(7-methoxy-2-methylquinolin-6-yl)-1H-imidazol-2-yl]-9-oxoundecan-3-yl}-6-azaspiro[2.5]octane-1-carboxamide], the EC50 is 11800 nM with KARN cells (Jurkat 2C4) (setting [1]) and above 40000 nM in the assay on KARN cells (Jurkat 2C4) (setting [2]). Moreover, the IC50 at Recombinant human HDAC8 was above 0.9 µM.
With `CCC(=O)CCCCC[C@H](NCc1ccncc1)c1ncc(-c2cc3ccc(C)nc3cc2OC)[nH]1` [Compound 404], the half-maximal effective concentration (EC50) in the assay with KARN cells (Jurkat 2C4) (setting [1]) and in the assay on KARN cells (Jurkat 2C4) (setting [2]) was above 40000 nM throughout. Moreover, on Recombinant human HDAC8, the IC50 is above 0.9 µM.
For `CCC(=O)CCCCC[C@H](NC(=O)C1=NOC2(CCN(C)CC2)C1)c1ncc(-c2ccc(Cl)cc2OC)o1` [Compound 390], the EC50 in the assay on KARN cells (Jurkat 2C4) (setting [3]) turned out to be 674 nM; in the assay with KARN cells (Jurkat 2C4) (setting [4]) it was 1680 nM. The IC50 on Recombinant human HDAC8 was above 0.9 µM.
`CCC(=O)CCCCC[C@H](NC(=O)[C@H]1CC12CCN(C)CC2)c1ncc(-c2cc3ocnc3cc2OC)o1` [Compound 408]: the EC50 in the assay with KARN cells (Jurkat 2C4) (setting [1]) amounted to 250 nM; with KARN cells (Jurkat 2C4) (setting [2]), 593 nM. In addition, on Recombinant human HDAC8, the concentration for half-maximal inhibition (IC50) was above 0.9 µM.
As to `CCC(=O)CCCCC[C@H](NC(=O)C1=NOC2(CCN(C)CC2)C1)c1nnc(-c2cc3ccccc3nc2OC)o1` [Compound 370], the concentration giving a half-maximal response (EC50) with KARN cells (Jurkat 2C4) (setting [1]) was 752 nM; in the assay on KARN cells (Jurkat 2C4) (setting [2]) it was 1430 nM. The IC50 on Recombinant human HDAC8 is 8.65 µM.
Regarding `CCC(=O)CCCCC[C@H](NC(=O)C1=NOC2(CCN(C(C)C)CC2)C1)c1ncc(-c2ccccc2)[nH]1` [Compound 379], the figures for the half-maximal effective concentration (EC50) with KARN cells (Jurkat 2C4) (setting [1]) and in the assay with KARN cells (Jurkat 2C4) (setting [2]) were 472 nM and 771 nM, respectively. In addition, at Recombinant human HDAC8, the IC50 is 3.29 µM.
For `CCC(=O)CCCCC[C@H](NC(=O)CCN1C(=O)C(CC)=NC12CCOCC2)c1ncc(-c2ccccc2)[nH]1` [Compound 384] the same measures were 2220 nM, 2410 nM and 8.93 µM.
For `CCC(=O)CCCCC[C@H](NC(=O)[C@H]1CC12CCN(C)CC2)c1ncc(-c2cc3ccncc3cc2OC)o1` [Compound 405] the same measures were 65 nM, 57 nM and above 0.9 µM.
Take `CCC(=O)CCCCC[C@H](NC(=O)C1=NOC2(CCN(C)CC2)C1)c1ncc(-c2cc3ccc(N(C)C)nc3cc2OC)o1` [Compound 397]: the EC50 was 279 nM in the assay with KARN cells (Jurkat 2C4) (setting [1]) and 327 nM in the assay on KARN cells (Jurkat 2C4) (setting [2]). The concentration for half-maximal inhibition (IC50) on Recombinant human HDAC8 is above 0.9 µM.
In the same order, the values of `CCC(=O)CCCCC[C@H](NC(=O)[C@H]1CC[C@]2(CC1)OC(=O)c1cccnc12)c1ncc(-c2ccccc2)[nH]1` [Compound 378] are 1310 nM, 2990 nM and 2.96 µM.
For `CCC(=O)CCCCC[C@H](NC(=O)C1=NOC2(CCN(C)CC2)C1)c1ncc(-c2cc3ccncc3cc2OC)o1` [Compound 415] the same measures were 105 nM, 118 nM and above 0.9 µM.
On to `CCC(=O)CCCCC[C@H](NC(=O)C1CC12CCOCC2)c1ncc(-c2cc3ccc(C)nc3cc2OC)o1` (single isomer, unassigned) [Compound 410], for which the figures for the concentration for a half-maximal effect (EC50) in the assay with KARN cells (Jurkat 2C4) (setting [3]) and in the assay with KARN cells (Jurkat 2C4) (setting [4]) were 663 nM and 1390 nM, respectively. Also, the IC50 on Recombinant human HDAC8 is above 0.9 µM.
Regarding `CCC(=O)CCCCC[C@H](NC(=O)[C@H]1CC[C@@]2(CC1)OC(=O)c1ccncc12)c1ncc(-c2ccccc2)[nH]1` [Compound 372], the half-maximal effective concentration (EC50) in the assay with KARN cells (Jurkat 2C4) (setting [1]) amounted to 2650 nM; with KARN cells (Jurkat 2C4) (setting [2]), 5250 nM. The IC50 on Recombinant human HDAC8 amounted to 7.73 µM.
`CCC(=O)CCCCC[C@H](NC(=O)[C@H]1CC[C@@]2(CC1)OC(=O)c1cccnc12)c1ncc(-c2ccccc2)[nH]1` [Compound 375]: the values for the EC50 in the assay on KARN cells (Jurkat 2C4) (setting [1]) and with KARN cells (Jurkat 2C4) (setting [2]) were 1450 nM and 9330 nM, respectively. For the same molecule, the IC50 at Recombinant human HDAC8 was 8.88 µM.
In the same order, the values of `CCC(=O)CCCCC[C@H](NCC1CC1)c1ncc(-c2cc3ccc(C)nc3cc2OC)[nH]1` [Compound 398, (S)-9-((cyclopropylmethyl)amino)-9-(5-(7-methoxy-2-methylquinolin-6-yl)-1H-imidazol-2-yl)nonan-3-one] are 5500 nM, 10200 nM and above 0.9 µM.
In the same order, the values of `CCC(=O)CCCCC[C@H](NC(=O)C1=NOC2(CCN(S(C)(=O)=O)CC2)C1)c1ncc(-c2ccccc2)[nH]1` [Compound 383] are 2620 nM, 3260 nM and 8.96 µM.
For `CCC(=O)CCCCC[C@H](NC(=O)C1=NOC2(CCN(C)CC2)C1)c1ncc(-c2ccc(-c3ccccn3)cc2OC)o1` [Compound 391] the same measures were 460 nM, 541 nM and above 0.9 µM.
On to `CCC(=O)CCCCCC(NC(=O)C1CCC2(CC1)OC(=O)c1ncccc12)c1nnc(-c2cc3ccccc3nc2OC)o1` (stereo not drawn) [Compound 365], for which the half-maximal effective concentration (EC50) in the assay with KARN cells (Jurkat 2C4) (setting [1]) amounted to 1550 nM; in the assay with KARN cells (Jurkat 2C4) (setting [2]), 3830 nM. Further, at Recombinant human HDAC8, the half-maximal inhibitory concentration (IC50) amounted to 28.4 µM.
Turning to `CCC(=O)CCCCC[C@H](NC(=O)[C@H]1CC12CCN(CC1CC1)CC2)c1ncc(-c2cc3ccc(=O)n(C)c3cc2F)o1` [Compound 400], the figures for the EC50 in the assay with KARN cells (Jurkat 2C4) (setting [1]) and in the assay on KARN cells (Jurkat 2C4) (setting [2]) were 577 nM and 557 nM, respectively. Further, the IC50 on Recombinant human HDAC8 is above 0.9 µM.
As to `CCC(=O)CCCCC[C@H](NC(=O)[C@H]1CC[C@]2(CC1)OC(=O)c1cccnc12)c1nnc(-c2cc3ccccc3nc2OC)o1` [Compound 368], the results for the EC50 in the assay on KARN cells (Jurkat 2C4) (setting [1]) and with KARN cells (Jurkat 2C4) (setting [2]) were 1570 nM and 5240 nM, respectively. For the same molecule, the 50% inhibitory concentration (IC50) at Recombinant human HDAC8 is 21.7 µM.
For `CCN[C@@H](CCCCCC(=O)CC)c1ncc(-c2cc3ccc(C)nc3cc2OC)[nH]1` [Compound 403] the same measures were 5340 nM, 5600 nM and above 0.9 µM.
For `CCC(=O)CCCCC[C@H](NC(=O)C1=NOC2(CCN(C(=O)OC)CC2)C1)c1ncc(-c2ccccc2)[nH]1` [Compound 381] the same measures were 2740 nM, 6410 nM and 7.47 µM.
For `CCC(=O)CCCCC[C@H](NC(=O)[C@H]1CC12CCN(C)CC2)c1ncc(-c2cc3ocnc3cc2F)o1` [Compound 389] the same measures were 1120 nM, 1550 nM and above 0.9 µM.
Regarding `CCC(=O)CCCCCC(N)(COC)c1ncc(-c2cc3ccc(C)nc3cc2OC)[nH]1` (stereo not drawn) [Compound 414, 9-amino-10-methoxy-9-[5-(7-methoxy-2-methylquinolin-6-yl)-1H-imidazol-2-yl]decan-3-one], the EC50 in the assay with KARN cells (Jurkat 2C4) (setting [1]) and in the assay on KARN cells (Jurkat 2C4) (setting [2]) was above 40000 nM throughout. The half-maximal inhibitory concentration (IC50) at Recombinant human HDAC8 is above 0.9 µM.
For the molecule `CCC(=O)CCCCC[C@H](NC(=O)C1=NOC2(CCN(C(C)C)CC2)C1)c1nnc(-c2cc3ccccc3nc2OC)o1` [Compound 369], the figures for the EC50 with KARN cells (Jurkat 2C4) (setting [1]) and with KARN cells (Jurkat 2C4) (setting [2]) were 804 nM and 1680 nM, respectively. Besides, the IC50 on Recombinant human HDAC8 was 19.9 µM.
In the same order, the values of `CCC(=O)CCCCC[C@H](NC(=O)[C@H]1CC12CCN(C)CC2)c1ncc(-c2cc3ccc(N(C)C)nc3cc2OC)o1` [Compound 406] are 280 nM, 279 nM and 0.3 µM.
In the same order, the values of `CCC(=O)CCCCC[C@H](NC(=O)C1=NOC2(CCN(C(C)=O)CC2)C1)c1ncc(-c2ccccc2)[nH]1` [Compound 380] are 1920 nM, 2410 nM and 6.33 µM.
